From ChEMBL document CHEMBL3045712, “Insect antifeedant and growth regulating activities of salannobutyrolactone and desacetylsalannobutyrolactone” (2005)

How the values were obtained:
Type in all cases: functional
[1] = test system: Spodoptera litura; experiment: Insecticidal activity against third-instar larval stage of Spodoptera litura fed on compound-treated castor leaves assessed as total larval duration time at 5 ug/cm2 (reference value: 12.7 +/- 0.89 days)
[2] = test system: Spodoptera litura; experiment: Insecticidal activity against third-instar larval stage of Spodoptera litura fed on compound-treated castor leaves assessed as pupal duration time at 5 ug/cm2 (reference value: 8.1 +/- 0.14 days)
[3] = test system: Spodoptera litura; experiment: Insecticidal activity against third-instar larval stage of Spodoptera litura fed on compound-treated castor leaves assessed as pupal duration time at 10 ug/cm2 (reference value: 8.1 +/- 0.14 days)
[4] = test system: Spodoptera litura; experiment: Insecticidal activity against third-instar larval stage of Spodoptera litura fed on compound-treated castor leaves assessed as pupal mortality at 5 ug/cm2 (reference value: 4.17%)
[5] = test system: Spodoptera litura; experiment: Antifeedant activity against third-instar larval stage of Spodoptera litura fed on compound-treated castor leaves assessed as feeding deterrence index at 5 ug/cm2 by dual choice leaf disc method
[6] = test system: Spodoptera litura; experiment: Antifeedant activity against third-instar larval stage of Spodoptera litura fed on compound-treated castor leaves assessed as feeding deterrence index at 10 ug/cm2 by dual choice leaf disc method
[7] = test system: Spodoptera litura; experiment: Insecticidal activity against third-instar larval stage of Spodoptera litura fed on compound-treated castor leaves assessed as larval mortality at 10 ug/cm2 (reference value: 4%)
[8] = test system: Spodoptera litura; experiment: Insecticidal activity against third-instar larval stage of Spodoptera litura fed on compound-treated castor leaves assessed as total larval duration time at 10 ug/cm2 (reference value: 12.7 +/- 0.89 days)
[9] = test system: Spodoptera litura; experiment: Insecticidal activity against third-instar larval stage of Spodoptera litura fed on compound-treated castor leaves assessed as pupal mortality at 10 ug/cm2 (reference value: 4.17%)
[10] = test system: Spodoptera litura; experiment: Insecticidal activity against third-instar larval stage of Spodoptera litura fed on compound-treated castor leaves assessed as larval mortality at 5 ug/cm2 (reference value: 4%)

SMILES: C/C=C(\C)C(=O)O[C@H]1C[C@@H](OC(C)=O)[C@@]2(C(=O)OC)CO[C@H]3[C@@H](O)[C@@](C)([C@]45O[C@@]4(C)[C@@H]4C[C@H]5O[C@@H]5OC=C[C@@]54O)[C@H]4[C@]1(CO[C@]4(O)C(=O)OC)[C@@H]32 [AZADIRACHTIN A]
- Time [1]: 15 days
- Time [2]: 9.8 days
- Time [3]: 10.14 days
- mortality at 5 µg/cm2 [4]: 33.2%
- FDI [5]: 15.62%
- FDI [6]: 12.59%
- mortality at 10 µg/cm2 [7]: 64%
- Time [8]: 16.3 days
- mortality at 10 µg/cm2 [9]: 40%

SMILES: C/C=C(\C)C(=O)O[C@H]1C[C@@H](O)[C@@]2(C)CO[C@H]3[C@H]4O[C@@H]5C[C@@H](C6=CCOC6=O)C(C)=C5[C@@]4(C)[C@H](CC(=O)OC)[C@]1(C)[C@@H]32 [DESACETYLSALANNOBUTYROLACTONE]
- Time [1]: 13.1 days
- Time [2]: 8.41 days
- Time [3]: 8.6 days
- mortality at 5 µg/cm2 [4]: 27.3%
- mortality at 5 µg/cm2 [10]: 24%
- FDI [5]: 50.45%
- FDI [6]: 47.97%
- mortality at 10 µg/cm2 [7]: 40%
- Time [8]: 14.4 days
- mortality at 10 µg/cm2 [9]: 33.3%

SMILES: C/C=C(\C)C(=O)O[C@H]1C[C@@H](OC(C)=O)[C@@]2(C)CO[C@H]3[C@H]4O[C@@H]5C[C@@H](C6=CCOC6=O)C(C)=C5[C@@]4(C)[C@H](CC(=O)OC)[C@]1(C)[C@@H]32 [SALANNOBUTYROLACTONE]
- Time [1]: 14 days
- Time [2]: 8.7 days
- Time [3]: 9.4 days
- mortality at 5 µg/cm2 [4]: 30.2%
- mortality at 5 µg/cm2 [10]: 32%
- FDI [5]: 39.34%
- FDI [6]: 36.69%
- mortality at 10 µg/cm2 [7]: 52%
- Time [8]: 15.5 days
- mortality at 10 µg/cm2 [9]: 37.2%
